Like-named read-outs stand apart in the source and are kept apart here.
Key:
p70S6K (h) = p70S6K (h) (Homo sapiens (Human), UniProt P23443); test: p70S6K (h) kinase assay (radiometric, [γ-33P-ATP]); format: biochemical; details: read-out: (a) p70S6K1 IC50
Protocol: (a) Determination of p70S6 Inhibitory Activity
The ability of compounds of the invention to inhibit P70S6 kinase may be determined using the protocol below.
20 mM MOPS, 1 mM EDTA, 0.01% Brij-35, 5% Glycerol, 0.1% b-mercaptoethanol, 1 mg/mL BSA
In a final reaction volume of 25 μL, p70S6K (h) (5-10 mU) is incubated with 8 mM MOPS pH 7.0, 0.2 mM EDTA, 100 μM KKRNRTLTV, 10 mM Mg acetate and [γ-33P-ATP](specific activity approx. 500 cpm/pmol, concentration as required). The reaction is initiated by the addition of the MgATP mix. After incubation for 40 minutes at room temperature, the reaction is stopped by the addition of 5 μL of a 3% phosphoric acid solution. 10 μL of the reaction mixture is then spotted onto a P30 filtermat and washed three times for 5 minutes in 75 mM phosphoric acid and once in methanol prior to drying and scintillation counting.

[1] = in vivo cassette mouse model: brain and plasma concentrations following oral dosing; details: male CD-1 mice, 2.5 mg/kg per compound; for Kp at 3 h: brain and plasma, read-out: (b) Brain:Plasma ratio at 3 hours
Protocol: (b) Evaluation of Brain and Plasma Concentrations in an In Vivo Cassette Mouse Model
The compounds of this invention were evaluated in an in vivo cassette mouse model to determine brain and plasma concentrations following oral dosing. This is an industry-standard and recognised means to assess brain penetration of small molecules (for recent literature article, refer to: in vitro permeability analysis, pharmacokinetic and brain distribution study in mice of imperatorin, isoimperatorin and cnidilin in Radix Angelicae Dahuricae, Fitoterapia, Volume 85, March 2013, Pages 144-153). It is also recognised that higher brain concentrations (and higher ratios of brain:plasma concentration) lead to greater exposure in the brain—this is clearly advantageous if the brain is the site of action.
For a single cassette study, male CD-1 mice were used (n=3 per timepoint, three timepoints: 1.0 hr, 3.0 hr and 8.0 hr).
5 compounds were dosed PO per cassette (dose level 2.5 mg/kg per compound, dose conc. 0.25 mg/ml, dose volume 10.0 ml/kg).
Formulation used to solubilize compounds: 10% DMSO/90% hydroxypropyl-β-cyclodextrin (20% w/v aqueous)
Sampling was terminal and plasma and brain matrices were generated. To prepare plasma samples, protein was precipitated using acetonitrile. To prepare brain samples, homogenisation and protein precipitation was performed with acetonitrile. Samples were analysed using HPLC-TOF MS using electrospray ionisation.
The brain and plasma concentrations and brain-plasma ratios observed for the compounds tested are set out in the table below.

[2] = brain, read-out: (b) Brain conc. at 3 hours
[3] = plasma, read-out: (b) Plasma conc. at 3 hours

Sequence of p70S6K (h) (P23443 whole entry): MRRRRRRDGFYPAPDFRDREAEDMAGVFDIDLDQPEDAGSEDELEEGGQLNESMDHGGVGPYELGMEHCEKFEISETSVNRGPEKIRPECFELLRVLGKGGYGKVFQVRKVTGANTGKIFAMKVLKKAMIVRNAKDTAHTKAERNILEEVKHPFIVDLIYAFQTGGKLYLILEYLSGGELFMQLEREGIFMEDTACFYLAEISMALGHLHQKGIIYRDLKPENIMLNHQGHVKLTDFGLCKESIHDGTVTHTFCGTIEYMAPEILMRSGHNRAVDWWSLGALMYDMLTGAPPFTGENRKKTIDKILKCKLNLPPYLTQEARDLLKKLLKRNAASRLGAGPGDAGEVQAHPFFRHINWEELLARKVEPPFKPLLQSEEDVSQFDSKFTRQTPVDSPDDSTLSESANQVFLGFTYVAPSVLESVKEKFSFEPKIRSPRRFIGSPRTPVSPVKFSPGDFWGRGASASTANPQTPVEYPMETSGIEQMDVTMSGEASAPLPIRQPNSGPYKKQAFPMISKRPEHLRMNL

Row | SMILES | IC50 (p70S6K (h)) | other results
1 | C[C@@H](Nc1ncc2cc(-c3ncnc4[nH]ncc34)ccc2n1)c1cccc(Cl)c1 [Example 2, ((R)-1-(3-Chloro-phenyl)-ethyl)-[6-(1H-pyrazolo[3,4-d]pyrimidin-4-yl)-quinazolin-2-yl]-amine] | 30 nM | 
2 | C[C@@H](Nc1ncc2cc(-c3ncnc4[nH]ncc34)ccc2n1)c1cccc(F)c1 [Example 3, ((R)-1-(3-Fluoro-phenyl)-ethyl)-[6-(1H-pyrazolo[3,4-d]pyrimidin-4-yl)-quinazolin-2-yl]-amine] | 21 nM | Kp at 3 h [1]: 3.7; concentration at 3 h [1, 2]: 1680 nM; concentration at 3 h [1, 3]: 460 nM
3 | C[C@@H](Nc1ncc2cc(-c3ncnc4[nH]ncc34)ccc2n1)c1ccc(F)cc1 [Example 4, ((R)-1-(4-Fluoro-phenyl)-ethyl)-[6-(1H-pyrazolo[3,4-d]pyrimidin-4-yl)-quinazolin-2-yl]-amine] | 22 nM | Kp at 3 h [1]: 2.2; concentration at 3 h [1, 2]: 1510 nM; concentration at 3 h [1, 3]: 680 nM
4 | C[C@@H](Nc1ncc2cc(-c3ccnc4[nH]ncc34)ccc2n1)c1ccccc1 [Example 13, ((R)-1-Phenyl-ethyl)-[6-(1H-pyrazolo[3,4-b]pyridin-4-yl)-quinazolin-2-yl]-amine] | 43 nM | 
5 | C[C@@H](Nc1ncc2cc(-c3ncnc4[nH]ccc34)ccc2n1)c1ccccc1 [Example 14, ((R)-1-Phenyl-ethyl)-[6-(7H-pyrrolo[2,3-d]pyrimidin-4-yl)-quinazolin-2-yl]-amine] | 57 nM | 
6 | C[C@@H](Nc1ncc2cc(-c3ccnc4[nH]ccc34)ccc2n1)c1ccccc1 [Example 15, ((R)-1-Phenyl-ethyl)-[6-(1H-pyrrolo[2,3-b]pyridin-4-yl)-quinazolin-2-yl]-amine] | 97 nM | 
7 | C[C@@H](Nc1ncc2cc(-c3ncnc4[nH]cnc34)ccc2n1)c1ccccc1 [Example 20, ((R)-1-Phenyl-ethyl)-[6-(9H-purin-6-yl)-quinazolin-2-yl]-amine] | 167 nM | 
8 | Cc1n[nH]c2ncnc(-c3ccc4nc(N[C@H](C)c5ccccc5)ncc4c3)c12 [Example 22, [6-(3-Methyl-1H-pyrazolo[3,4-d]pyrimidin-4-yl)-quinazolin-2-yl]-((R)-1-phenyl-ethyl)-amine] | 131 nM | 
9 | Fc1ccc(CNc2ncc3cc(-c4ncnc5[nH]ncc45)ccc3n2)cc1F [Example 25, (3,4-Difluoro-benzyl)-[6-(1H-pyrazolo[3,4-d]pyrimidin-4-yl)-quinazolin-2-yl]-amine] | 49 nM | 
10 | CS(=O)(=O)Nc1cccc(CNc2ncc3cc(-c4ncnc5[nH]ncc45)ccc3n2)c1 [Example 26, N-(3-{[6-(1H-Pyrazolo[3,4-d]pyrimidin-4-yl)-quinazolin-2-ylamino]-methyl}-phenyl)-methanesulfonamide] | 67 nM | 
11 | COc1cccc([C@@H](C)Nc2ncc3cc(-c4ncnc5[nH]ncc45)ccc3n2)c1 [Example 27, [(R)-1-(3-Methoxy-phenyl)-ethyl]-[6-(1H-pyrazolo[3,4-d]pyrimidin-4-yl)-quinazolin-2-yl]-amine] | 41 nM | 
12 | C[C@@H](Nc1ncc2cc(-c3ncnc4[nH]ncc34)ccc2n1)c1cccc(NS(C)(=O)=O)c1 [Example 30, N-(3-{(R)-1-[6-(1H-Pyrazolo[3,4-d]pyrimidin-4-yl)-quinazolin-2-ylamino]-ethyl}-phenyl)-methanesulfonamide] | 23 nM | 
13 | C[C@@H](Nc1ncc2cc(-c3ncnc4[nH]ncc34)ccc2n1)c1c(F)cccc1F [Example 33, [(R)-1-(2,6-Difluoro-phenyl)-ethyl]-[6-(1H-pyrazolo[3,4-d]pyrimidin-4-yl)-quinazolin-2-yl]-amine] | 28 nM | 
14 | C[C@@H](Nc1ncc2cc(-c3ncnc4[nH]cc(C#N)c34)ccc2n1)c1ccccc1 [Example 34, 4-[2-((R)-1-Phenyl-ethylamino)-quinazolin-6-yl]-7H-pyrrolo[2,3-d]pyrimidine-5-carbonitrile] | 346 nM | 

Continued, in another order:

Row | IC50 (p70S6K (h)) | SMILES | other results
15 | 24 nM | OC[C@@H](Nc1ncc2cc(-c3ncnc4[nH]ncc34)ccc2n1)c1ccccc1 [Example 5, ((S)-2-Hydroxy-1-phenyl-ethyl)-[6-(1H-pyrazolo[3,4-d]pyrimidin-4-yl)-quinazolin-2-yl]-amine] | 
16 | 147 nM | CN(Cc1ccc(F)cc1)c1ncc2cc(-c3ncnc4[nH]ncc34)ccc2n1 [Example 6, (4-Fluorobenzyl)-[6-(1H-pyrazolo[3,4-d]pyrimidin-4-yl)-quinazolin-2-yl]-methylamine] | 
17 | 33 nM | CN(Cc1ccccc1)c1ncc2cc(-c3ncnc4[nH]ncc34)ccc2n1 [Example 7, Benzyl-[6-(1H-pyrazolo[3,4-d]pyrimidin-4-yl)-quinazolin-2-yl]-methylamine] | 
18 | 108 nM | C[C@H](c1ccccc1)N(C)c1ncc2cc(-c3ncnc4[nH]ncc34)ccc2n1 [Example 8, ((R)-1-Phenyl-ethyl)-[6-(1H-pyrazolo[3,4-d]pyrimidin-4-yl)-quinazolin-2-yl]-methylamine] | 
19 | 55 nM | Fc1ccc(CNc2ncc3cc(-c4ncnc5[nH]ncc45)ccc3n2)cc1 [Example 9, (4-Fluorobenzyl)-[6-(1H-pyrazolo[3,4-d]pyrimidin-4-yl)-quinazolin-2-yl]-amine] | 
20 | 18 nM | Fc1cccc(CNc2ncc3cc(-c4ncnc5[nH]ncc45)ccc3n2)c1 [Example 10, (3-Fluorobenzyl)-[6-(1H-pyrazolo[3,4-d]pyrimidin-4-yl)-quinazolin-2-yl]-amine] | Kp at 3 h [1]: 1.7; concentration at 3 h [1, 2]: 840 nM; concentration at 3 h [1, 3]: 500 nM
21 | 145 nM | Clc1cccc(CNc2ncc3cc(-c4ncnc5[nH]ncc45)ccc3n2)c1 [Example 11, (3-Chlorobenzyl)-[6-(1H-pyrazolo[3,4-d]pyrimidin-4-yl)-quinazolin-2-yl]-amine] | 
22 | > 3000 nM | C[C@@H](Nc1ncc2ccc(-c3ncnc4[nH]ncc34)cc2n1)c1ccccc1 [Example 12, ((R)-1-Phenyl-ethyl)-[7-(1H-pyrazolo[3,4-d]pyrimidin-4-yl)-quinazolin-2-yl]-amine] | 
23 | 106 nM | CN(C)CCN(Cc1ccccc1)c1ncc2cc(-c3ncnc4[nH]ncc34)ccc2n1 [Example 16, N-Benzyl-N′,N′-dimethyl-N-[6-(1H-pyrazolo[3,4-d]pyrimidin-4-yl)-quinazolin-2-yl]-ethane-1,2-diamine] | 
24 | 110 nM | c1ccc(CN(C[C@@H]2COCCN2)c2ncc3cc(-c4ncnc5[nH]ncc45)ccc3n2)cc1 [Example 17, Benzyl-(R)-1-morpholin-3-ylmethyl-[6-(1H-pyrazolo[3,4-d]pyrimidin-4-yl)-quinazolin-2-yl]-amine] | 
25 | 25 nM | c1ccc(CN(C[C@H]2COCCN2)c2ncc3cc(-c4ncnc5[nH]ncc45)ccc3n2)cc1 [Example 18, Benzyl-(S)-1-morpholin-3-ylmethyl-[6-(1H-pyrazolo[3,4-d]pyrimidin-4-yl)-quinazolin-2-yl]-amine] | 
26 | 71 nM | c1ccc(CNc2ncc3cc(-c4ncnc5[nH]ncc45)ccc3n2)cc1 [Example 21, Benzyl-[6-(1H-pyrazolo[3,4-d]pyrimidin-4-yl)-quinazolin-2-yl]-amine] | 
27 | 118 nM | COc1cccc(CNc2ncc3cc(-c4ncnc5[nH]ncc45)ccc3n2)c1 [Example 23, (3-Methoxy-benzyl)-[6-(1H-pyrazolo[3,4-d]pyrimidin-4-yl)-quinazolin-2-yl]-amine] | 
28 | 204 nM | Fc1ccccc1CNc1ncc2cc(-c3ncnc4[nH]ncc34)ccc2n1 [Example 24, (2-Fluoro-benzyl)-[6-(1H-pyrazolo[3,4-d]pyrimidin-4-yl)-quinazolin-2-yl]-amine] | 
29 | > 3000 nM | C[C@H](Nc1ncc2cc(-c3ncnc4[nH]ncc34)ccc2n1)c1ccccc1 [Example 29, ((S)-1-Phenyl-ethyl)-[6-(1H-pyrazolo[3,4-d]pyrimidin-4-yl)-quinazolin-2-yl]-amine] | 
30 | 10 nM | OCC[C@@H](Nc1ncc2cc(-c3ncnc4[nH]ncc34)ccc2n1)c1ccccc1 [Example 31, (R)-3-Phenyl-3-[6-(1H-pyrazolo[3,4-d]pyrimidin-4-yl)-quinazolin-2-ylamino]-propan-1-ol] | 
31 | 20 nM | C[C@@H](Nc1ncc2cc(-c3ncnc4[nH]ncc34)ccc2n1)c1ccccc1O [Example 35, 2-{(R)-1-[6-(1H-Pyrazolo[3,4-d]pyrimidin-4-yl)-quinazolin-2-ylamino]-ethyl}-phenol] | 
